{"source": "paper PMC4836378", "about": "(Journal of medicinal chemistry, 2016)", "key": {"[1]": {"target": "T1, CYP26A1 (Homo sapiens, UniProt O43174)", "T1 sequence (O43174 1-497)": "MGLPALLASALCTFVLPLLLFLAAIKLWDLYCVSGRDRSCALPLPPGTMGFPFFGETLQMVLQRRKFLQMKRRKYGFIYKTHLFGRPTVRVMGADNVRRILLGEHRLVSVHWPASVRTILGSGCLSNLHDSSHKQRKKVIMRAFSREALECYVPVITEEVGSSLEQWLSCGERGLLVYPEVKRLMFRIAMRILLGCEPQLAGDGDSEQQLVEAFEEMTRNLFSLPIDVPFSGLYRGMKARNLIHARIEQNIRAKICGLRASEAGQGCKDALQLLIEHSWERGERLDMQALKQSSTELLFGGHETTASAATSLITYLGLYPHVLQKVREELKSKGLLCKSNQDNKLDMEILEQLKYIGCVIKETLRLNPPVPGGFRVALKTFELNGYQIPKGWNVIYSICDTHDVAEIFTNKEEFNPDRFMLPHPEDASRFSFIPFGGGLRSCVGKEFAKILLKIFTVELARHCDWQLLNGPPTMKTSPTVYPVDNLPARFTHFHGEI", "test": "CYP26A1 inhibition assay", "conditions": "for Selectivity towards CYP26A1 compared to CYP26B1 (ratio of IC50): CYP26B1 IC50 versus CYP26A1 IC50"}, "[2]": {"target": "T2, CYP26B1 (Homo sapiens, UniProt Q9NR63)", "T2 sequence (Q9NR63 1-512)": "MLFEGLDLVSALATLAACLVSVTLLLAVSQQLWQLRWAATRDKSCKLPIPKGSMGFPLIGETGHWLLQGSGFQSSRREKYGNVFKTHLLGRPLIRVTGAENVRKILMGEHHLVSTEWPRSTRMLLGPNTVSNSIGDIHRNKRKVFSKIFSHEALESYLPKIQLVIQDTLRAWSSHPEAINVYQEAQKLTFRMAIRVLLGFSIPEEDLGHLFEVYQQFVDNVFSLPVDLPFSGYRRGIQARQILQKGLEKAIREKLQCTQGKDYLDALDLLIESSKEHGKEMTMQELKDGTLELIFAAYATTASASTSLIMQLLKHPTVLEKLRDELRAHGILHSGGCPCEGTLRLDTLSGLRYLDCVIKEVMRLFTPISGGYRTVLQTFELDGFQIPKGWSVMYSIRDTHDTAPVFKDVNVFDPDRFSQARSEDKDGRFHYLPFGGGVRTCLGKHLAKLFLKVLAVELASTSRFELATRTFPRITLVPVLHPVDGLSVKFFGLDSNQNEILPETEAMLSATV", "test": "CYP26B1 inhibition assay"}, "[3]": {"target": "T3, human RARα (Homo sapiens, UniProt P10276)", "T3 sequence (P10276 1-462)": "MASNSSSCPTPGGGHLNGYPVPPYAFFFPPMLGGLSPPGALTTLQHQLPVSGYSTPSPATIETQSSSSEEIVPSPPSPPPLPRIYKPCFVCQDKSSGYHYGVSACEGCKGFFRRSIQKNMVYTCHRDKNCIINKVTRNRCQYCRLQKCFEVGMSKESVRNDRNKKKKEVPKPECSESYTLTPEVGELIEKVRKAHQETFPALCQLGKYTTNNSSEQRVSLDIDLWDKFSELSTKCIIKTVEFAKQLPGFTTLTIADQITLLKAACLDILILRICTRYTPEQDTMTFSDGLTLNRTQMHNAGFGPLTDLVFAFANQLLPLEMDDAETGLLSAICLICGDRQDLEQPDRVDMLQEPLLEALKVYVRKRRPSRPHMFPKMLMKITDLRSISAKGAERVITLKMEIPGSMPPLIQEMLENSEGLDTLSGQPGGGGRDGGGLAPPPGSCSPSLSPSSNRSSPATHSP", "test": "Luciferase-based RARα reporter assay", "type": "cell-based", "conditions": "1 μM compound, data not shown"}, "[4]": {"target": "T4, human RARγ (Homo sapiens, UniProt P13631)", "T4 sequence (P13631 1-454)": "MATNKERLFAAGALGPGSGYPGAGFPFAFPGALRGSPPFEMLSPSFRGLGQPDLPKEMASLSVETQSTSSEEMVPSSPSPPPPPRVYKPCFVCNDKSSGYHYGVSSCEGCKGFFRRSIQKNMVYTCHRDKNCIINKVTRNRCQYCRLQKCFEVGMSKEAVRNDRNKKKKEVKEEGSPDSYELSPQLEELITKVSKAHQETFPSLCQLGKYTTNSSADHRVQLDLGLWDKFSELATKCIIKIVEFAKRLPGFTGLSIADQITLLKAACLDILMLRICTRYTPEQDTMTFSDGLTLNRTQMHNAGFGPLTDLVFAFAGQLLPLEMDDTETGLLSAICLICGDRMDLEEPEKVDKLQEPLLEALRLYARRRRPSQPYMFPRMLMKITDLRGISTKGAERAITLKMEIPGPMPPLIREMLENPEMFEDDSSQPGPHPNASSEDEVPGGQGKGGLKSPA", "test": "Luciferase-based RARγ reporter assay", "type": "cell-based", "conditions": "1 μM compound, data not shown"}, "[5]": {"tested_on": "RARs in HepG2 cells", "test": "Induction of RARβ and CYP26A1 mRNA in HepG2 cells", "type": "cell-based, human", "conditions": "for RAR antagonistic activity: 100 nM atRA + 1 μM compound; for Magnitude of induction of RARβ and CYP26A1 mRNA compared to atRA treatment alone: 100 nM atRA in combination with 1 μM compound; for Activation of RARs (induction of CYP26A1 and RARβ mRNA): 1 μM compound alone, 24 hours, versus vehicle and atRA"}, "[6]": {"target": "CYP3A4 (Homo sapiens, UniProt P08684)", "sequence (P08684 whole entry)": "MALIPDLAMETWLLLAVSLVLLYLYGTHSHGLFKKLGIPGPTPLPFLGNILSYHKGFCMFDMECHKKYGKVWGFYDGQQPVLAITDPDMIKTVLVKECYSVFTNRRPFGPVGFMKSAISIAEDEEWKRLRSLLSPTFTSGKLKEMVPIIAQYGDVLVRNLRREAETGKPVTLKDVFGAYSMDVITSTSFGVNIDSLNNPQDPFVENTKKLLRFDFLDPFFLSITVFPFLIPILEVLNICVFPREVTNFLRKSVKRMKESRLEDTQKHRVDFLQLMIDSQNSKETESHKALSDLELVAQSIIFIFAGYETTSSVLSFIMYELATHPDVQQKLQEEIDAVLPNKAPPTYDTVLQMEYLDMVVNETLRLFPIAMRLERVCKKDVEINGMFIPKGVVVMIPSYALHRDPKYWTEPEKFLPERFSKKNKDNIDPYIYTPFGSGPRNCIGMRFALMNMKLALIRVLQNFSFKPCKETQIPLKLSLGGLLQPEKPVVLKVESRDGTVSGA", "test": "CYP3A4 inhibition in human liver microsomes", "type": "in vitro ADME", "conditions": "midazolam; for Percent inhibition of CYP3A4: 10 μM inhibitor, 10 µM"}, "[7]": {"target": "CYP2D6 (Homo sapiens, UniProt P10635)", "sequence (P10635 whole entry)": "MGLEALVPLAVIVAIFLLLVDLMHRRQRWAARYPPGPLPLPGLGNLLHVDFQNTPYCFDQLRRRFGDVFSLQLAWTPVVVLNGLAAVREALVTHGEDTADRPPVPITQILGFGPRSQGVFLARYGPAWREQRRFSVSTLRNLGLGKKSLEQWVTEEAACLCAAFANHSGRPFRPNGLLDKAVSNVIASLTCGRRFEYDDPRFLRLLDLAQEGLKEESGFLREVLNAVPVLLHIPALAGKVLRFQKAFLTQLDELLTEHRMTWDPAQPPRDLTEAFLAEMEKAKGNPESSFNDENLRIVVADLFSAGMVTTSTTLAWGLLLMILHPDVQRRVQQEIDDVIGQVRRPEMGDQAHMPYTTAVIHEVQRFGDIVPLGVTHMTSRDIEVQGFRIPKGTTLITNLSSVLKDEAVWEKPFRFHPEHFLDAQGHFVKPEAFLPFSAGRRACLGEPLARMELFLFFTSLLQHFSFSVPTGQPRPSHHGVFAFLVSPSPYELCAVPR", "test": "CYP2D6 inhibition in human liver microsomes", "type": "in vitro ADME"}, "[8]": {"target": "CYP2C19 (Homo sapiens, UniProt P33261)", "sequence (P33261 whole entry)": "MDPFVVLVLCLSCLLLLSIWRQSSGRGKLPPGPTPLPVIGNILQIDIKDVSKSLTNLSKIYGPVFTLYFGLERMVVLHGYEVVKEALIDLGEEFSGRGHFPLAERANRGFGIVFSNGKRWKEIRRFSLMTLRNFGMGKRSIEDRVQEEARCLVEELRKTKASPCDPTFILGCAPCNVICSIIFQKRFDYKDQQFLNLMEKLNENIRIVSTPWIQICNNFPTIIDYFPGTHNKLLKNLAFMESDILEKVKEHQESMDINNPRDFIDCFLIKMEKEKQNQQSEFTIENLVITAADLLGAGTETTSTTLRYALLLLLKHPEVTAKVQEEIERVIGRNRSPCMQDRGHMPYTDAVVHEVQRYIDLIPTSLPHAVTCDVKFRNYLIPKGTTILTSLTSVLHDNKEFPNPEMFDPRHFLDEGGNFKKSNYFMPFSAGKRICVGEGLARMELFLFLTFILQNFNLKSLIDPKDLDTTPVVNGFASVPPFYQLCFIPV", "test": "CYP2C19 inhibition in human liver microsomes", "type": "in vitro ADME", "conditions": "10 μM inhibitor, (S)-mephenytoin"}, "[9]": {"target": "T5, CYP2B6 (Homo sapiens, UniProt P20813)", "T5 sequence (P20813 1-491)": "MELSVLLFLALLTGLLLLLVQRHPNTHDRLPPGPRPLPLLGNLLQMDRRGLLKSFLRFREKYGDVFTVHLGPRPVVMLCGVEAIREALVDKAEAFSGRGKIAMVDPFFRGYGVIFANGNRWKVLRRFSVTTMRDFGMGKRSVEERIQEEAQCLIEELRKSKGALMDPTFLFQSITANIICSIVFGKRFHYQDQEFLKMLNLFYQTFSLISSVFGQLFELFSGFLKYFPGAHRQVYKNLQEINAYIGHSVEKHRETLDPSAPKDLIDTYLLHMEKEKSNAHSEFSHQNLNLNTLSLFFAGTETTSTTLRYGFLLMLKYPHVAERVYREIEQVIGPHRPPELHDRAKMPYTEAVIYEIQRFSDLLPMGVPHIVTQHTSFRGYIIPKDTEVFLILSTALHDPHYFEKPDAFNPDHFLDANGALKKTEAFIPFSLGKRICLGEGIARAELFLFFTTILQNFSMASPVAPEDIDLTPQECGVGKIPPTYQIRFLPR", "test": "CYP2B6 inhibition in human liver microsomes", "type": "in vitro ADME", "conditions": "10 μM inhibitor, bupropion"}, "[10]": {"tested_on": "atRA metabolism in HepG2 cells", "conditions": "HepG2, 24 hour treatment"}, "[11]": {"substrate": "CC1=C(/C=C/C(C)=C\\C=C\\C(C)=C\\C(=O)O)C(C)(C)CCC1", "test": "cells, lysate or membranes named", "conditions": "other: recombinant CYP26B1, 50-1000 nM 9-cis-RA; pH 7.4; 37.0 °C"}}, "note": "Like-named read-outs stand apart in the source and are kept apart here.", "data": [{"molecule": "CCC(CC)C(c1ccc(Nc2nc3ccccc3s2)cc1)n1cncn1", "note": "(stereo not shown) [Compound 3, talarozole]", "values": [{"measurement": "Ki", "setting": "[1]", "result": 5.1, "unit": "nM"}, {"measurement": "Ki", "setting": "[2]", "result": 0.46, "unit": "nM"}]}, {"molecule": "CC1(C)CCC(C)(C)c2cc(C3(c4ccc5cc(C(=O)O)ccc5c4)OCCO3)ccc21", "note": "[Compound 13b, 6-(2-(5,5,8,8-Tetramethyl-5,6,7,8-tetrahydronaphthalen-2-yl)-1,3-dioxolan-2-yl)-2-naphthoic acid]", "values": [{"measurement": "Selectivity towards CYP26A1 compared to CYP26B1 (ratio of IC50)", "setting": "[1]", "result": "10–20 fold"}]}, {"molecule": "CC1(C)CCC(C)(C)c2cc(C3(c4ccc5cc(C(=O)O)ccc5c4)SCCS3)ccc21", "note": "[Compound 15b, 6-(2-(5,5,8,8-Tetramethyl-5,6,7,8-tetrahydronaphthalen-2-yl)-1,3-dithiolan-2-yl)-2-naphthoic acid]", "values": [{"measurement": "Selectivity towards CYP26A1 compared to CYP26B1 (ratio of IC50)", "setting": "[1]", "result": "10–20 fold"}]}, {"molecule": "CC1(C)CCC(C)(C)c2cc(C3(c4ccc(/C=C/C(=O)O)cc4)OCCO3)ccc21", "note": "[Compound 22, (E)-3-(4-(2-(5,5,8,8-Tetramethyl-5,6,7,8-tetrahydronaphthalen-2-yl)-1,3-dioxolan-2-yl)phenyl)-acrylic acid]", "values": [{"measurement": "RARα activation", "setting": "[3]", "result": "No measurable RARα and RARγ activation was detected"}, {"measurement": "RARγ activation", "setting": "[4]", "result": "No measurable RARα and RARγ activation was detected"}, {"measurement": "RAR antagonistic activity", "setting": "[5]", "result": "do not exhibit an RAR antagonistic activity"}, {"measurement": "Magnitude of induction of RARβ and CYP26A1 mRNA compared to atRA treatment alone", "setting": "[5]", "result": "significantly increased"}, {"measurement": "Activation of RARs (induction of CYP26A1 and RARβ mRNA)", "setting": "[5]", "result": "none of the three compounds resulted in activation"}, {"measurement": "Percent inhibition of CYP3A4", "setting": "[6]", "result": "free of any CYP3A4 inhibition"}, {"measurement": "inhibition at 10 µM", "setting": "[7]; human, probe dextromethorphan", "result": 50, "unit": "%"}]}, {"molecule": "CC1(C)CCC(C)(C)c2cc(C3(c4ccc(CCC(=O)O)cc4)OCCO3)ccc21", "note": "[Compound 24, 3-{4-[2-(5,5,8,8-Tetramethyl-5,6,7,8-tetrahydronaphthalen-2-yl)-1,3-dioxolan-2-yl]phenyl}4 propanoic acid]", "values": [{"measurement": "RARα activation", "setting": "[3]", "result": "No measurable RARα and RARγ activation was detected"}, {"measurement": "RARγ activation", "setting": "[4]", "result": "No measurable RARα and RARγ activation was detected"}, {"measurement": "RAR antagonistic activity", "setting": "[5]", "result": "do not exhibit an RAR antagonistic activity"}, {"measurement": "Magnitude of induction of RARβ and CYP26A1 mRNA compared to atRA treatment alone", "setting": "[5]", "result": "significantly increased"}, {"measurement": "Activation of RARs (induction of CYP26A1 and RARβ mRNA)", "setting": "[5]", "result": "none of the three compounds resulted in activation"}, {"measurement": "Percent inhibition of CYP3A4", "setting": "[6]", "result": "free of any CYP3A4 inhibition"}, {"measurement": "IC50 for CYP3A4 inhibition", "setting": "[6]", "result": "no concentration dependent inhibition"}, {"measurement": "Percent inhibition of CYP2D6", "setting": "[7]; 10 μM inhibitor, dextromethorphan, 10 µM", "result": "free of any significant inhibition"}, {"measurement": "Percent inhibition of CYP2C19", "setting": "[8]", "result": "free of any significant inhibition"}, {"measurement": "Percent inhibition of CYP2B6", "setting": "[9]", "result": "free of any significant inhibition"}]}, {"molecule": "CC1=C(/C=C/C(C)=C/C=C/C(C)=C/C(=O)O)C(C)(C)CCC1", "note": "[atRA, all-trans-retinoic acid]", "values": [{"measurement": "atRA in cell media", "setting": "[10]; 100nM atRA alone", "result": "13.2 ± 0.14", "unit": "nM"}, {"measurement": "atRA in cell media", "setting": "[10]; 1μM atRA alone", "result": "214 ± 13.6", "unit": "nM"}]}, {"molecule": "CYP26B1 (Homo sapiens) (protein) MLFEGLDLVSALATLAACLVSVTLLLAVSQQLWQLRWAATRDKSCKLPIPKGSMGFPLIGETGHWLLQGSGFQSSRREKYGNVFKTHLLGRPLIRVTGAENVRKILMGEHHLVSTEWPRSTRMLLGPNTVSNSIGDIHRNKRKVFSKIFSHEALESYLPKIQLVIQDTLRAWSSHPEAINVYQEAQKLTFRMAIRVLLGFSIPEEDLGHLFEVYQQFVDNVFSLPVDLPFSGYRRGIQARQILQKGLEKAIREKLQCTQGKDYLDALDLLIESSKEHGKEMTMQELKDGTLELIFAAYATTASASTSLIMQLLKHPTVLEKLRDELRAHGILHSGGCPCEGTLRLDTLSGLRYLDCVIKEVMRLFTPISGGYRTVLQTFELDGFQIPKGWSVMYSIRDTHDTAPVFKDVNVFDPDRFSQARSEDKDGRFHYLPFGGGVRTCLGKHLAKLFLKVLAVELASTSRFELATRTFPRITLVPVLHPVDGLSVKFFGLDSNQNEILPETEAMLSATV", "values": [{"measurement": "Km", "setting": "[11]", "result": 0.555, "unit": "µM"}, {"measurement": "kcat", "setting": "[11]", "result": 3.6, "unit": "pmol/min/pmol P450"}]}]}
